Entries after “also recorded” stand apart in the source; their conditions may differ.
How the values were obtained:
BRE = experiment: Activation of BRE fused to GFP in fungal protoplasts (surface receptor test); assay type: cell-based
Description: While not necessary to understand to practice the invention, a more complicated mechanism of induction may include a surface receptor that binds to benzoate and which then initiates either some kind of signal transduction cascade or the release of a TF that then culminates in the activation of the BPH promoter (FIGS. 12C and D). The hypothesis of a surface receptor was tested by using the p-NH2-benzoate coupled to agarose (as described above) as a non-cleavable external probe. Fungal protoplasts containing the BRE fused to GFP were then prepared, and activation of the BRE (production of the GFP marker) by addition of the agarose-immobilized benzoate derivative to the fungal protoplasts was scored. […] In order to investigate whether the disparity of size between the larger agarose beads and fungal protoplasts may have caused steric problems in binding of the inducer, smaller ligands still incapable of uptake are constructed and utilized to confirm a non-membrane surface location.
The hypothesis of a surface receptor was tested by using the p-NH2-benzoate coupled to agarose (as described above) as a non-cleavable external probe. Fungal protoplasts containing the BRE fused to GFP were then prepared, and activation of the BRE (production of the GFP marker) by addition of the agarose-immobilized benzoate derivative to the fungal protoplasts was scored. […]

bphA gene = experiment: RNA (Northern) blot of bphA gene transcription in mycelia; assay type: cell-based, Aspergillus niger; details: 8 mM inducer, RNA blot (FIG. 4)
Description: The time course gene expression induction was examined by analyzing total RNA at different times after adding benzoic acid. Northern (RNA) blots were carried out using total RNA extracted from mycelia grown for different periods of time in the presence of benzoic acid. Initially, the fungus was inoculated in CM medium (Pontecorvo (1953) Adv. Genet. 5: 141-238) for 24 hours, transferred to benzoate-containing medium (0.1% w/v) for different times, and total RNA was extracted using the Rneasy Plant Total RNA kit (Qiagen Inc, Valencia, Calif.) according to the manufacturer's instructions. Total RNA was resolved on a formaldehyde-agarose gel and transferred to a Hybond-N nylon membrane (Amersham Life Sci. Inc, Arlington Heights, Ill.). Radiolabeled BPH probe was allowed to hybridize to the membrane, as described above. Northern blot methods were also carried out as recommended (Amersham).
Different benzoate concentrations and inducers were used to better characterize the inducibility of the bphA gene. Gene expression was assayed by Northern blots. Benzoate 4-hydroxylase activity is also assessed by enzymatic assays to confirm the inducibility at the transcriptional level described by Van Gorcom et al. ((1990) Mol. Gen. Genet. 223, 192-197). Inducibility is also verified by reverse transcription of mRNAs produced under induction conditions.
To verify the inducibility of the bphA gene by benzoic acid, A. niger was inoculated in complete medium and grown for 24 hours before being transferred to fresh medium containing 0.1% benzoic acid. Mycelia were harvested after different periods of induction, and total RNA was extracted.

BREF51 = experiment: Electrophoretic Mobility Shift Assay (EMSA) with total protein extracts from yeast GAD clones; assay type: binding, A. niger; details: 5 μg total yeast protein extract
From the text: The protein encoded by GAD1 (SEQ ID NO:15) is highly similar to a predicted protein present in the A. nidulans genome (E value 2e^−83), and similar to a hypothetical protein (B24P11.210) in the N. crassa genome (E value 4e^−27) (Table 2). GAD1 protein is rich in serine residues (16%), and is predicted by PSORTII (Nakai and Horton (1999) Trends Biochem. Sci. 24: 34-35) to be localized in the nucleus (70.6% probability). […] Serine-rich motifs can be phosphorylation targets by protein kinase C in proteins (Branden and Tooze (1999) Introduction to protein structure, 2nd ed. Garland Publishing, New York, N.Y. 410 p.). […] While not necessary to understand in order to practice the present invention, if GAD1 is involved in the regulation of BPHprom, GAD1 protein might be always bound to a benzoic acid response element in the bphA promoter. […] However, addition of benzoic acid could cause phosphorylation of one of the serine residues in GAD1, leading to its activation. […]
Positive clones identified on the one-hybrid screen were grown in 100 mL of SD/-Leu media, and total proteins were extracted following a modified procedure from that described by Arndt et al. ((1987) Science 237: 874-880). […] Protein concentration of the resulting supernatant was determined by the Bradford method (Bio-Rad, Hercules, Calif.), and BSA was used as a standard.

Row | Molecule | induction of transcription of the bphA gene (bphA gene) | further results
1 | Nc1ccc(C(=O)O)cc1 [p-aminobenzoate] | – | GFP fluorescence in the BRE-GFP transformed line (BRE): induced GFP fluorescence
2 | O=C([O-])c1ccccc1.[Na+] [sodium benzoate] | can induce the promoter; also recorded: induced | –
3 | COC(=O)c1ccccc1 [methyl benzoate] | can induce the promoter; also recorded: induced | –
4 | OCc1ccccc1 [benzyl alcohol] | do not induce the promoter | induction of transcription of the bphA gene (bphA gene; listed as Benzyl alcohol): not effective inducers
5 | O=C(O)CCc1ccccc1 [hydrocinnamic acid] | do not induce the promoter; also recorded: not effective inducers | –
6 | GAD11: protein encoded by yeast one-hybrid clone GAD11 (SEQ ID NO:17), candidate transcription factor binding BREF51 (protein, Aspergillus niger) DSAESRFSLHSQGSVPPAPSTATKHMTPHNHTNNHGGPLPSKPGSEGASNNGTQITGPHESNLIEQFREREDKLWAYVRSVHEELNGLRTEVAALRAQLASANVNALAMSSQSAPQSQPETNAAGTSQR | – | gel mobility shift of the BREF51 fragment (BREF51): showed a gel mobility shift; also recorded: positive mobility shifts
7 | GAD1: protein encoded by yeast one-hybrid clone GAD1 (SEQ ID NO:15), candidate transcription factor binding BREF51 (protein, Aspergillus niger) MVSFKSLLTATTLATAVLAIPHSGHGHGSHKHRSTHVASKRTSSSKRGAAYNSASSVHTLTSGSSGNGTVSWAYDWNMYADGTLPSNVEYVPMLWGSKMFGGWLTAIETALDSGSNYIMGFNEPDSSSQASMTASEAASSYKNYITPYSGKAKLVTPAVTSSTTEGEGLSWMKSFLSECSECDMSVLAVHWYGTSADEFKSFVQEAMQVADDNGLDETWVTEFALTSDESAGGDESSAADFLDEGVGRYAYYMCADGYLLSGEELSSSGKVYVA | – | gel mobility shift of the BREF51 fragment (BREF51): showed a gel mobility shift; also recorded: positive mobility shifts

Reference: patent publication US7705203B2, “Benzoate inductible promoters” (Purdue Research Foundation, priority 2002, dated 2010)
